These results are taken from article PMC11050087, “Polyphenols from Maackia amurensis Heartwood Protect Neuronal Cells from Oxidative Stress and Prevent Herpetic Infection” (International Journal of Molecular Sciences, 2024).

SMILES strings stand for the structures. Values joined by “and” are separate entries in the source; they are usually repeats but may differ in a detail not shown here. Equal entries are not always repeated. Where two headings read alike, the source gives them in different places.

For series [1], the system named is 6-OHDA-treated Neuro-2a cells. Put plainly: 6-OHDA-induced neurotoxicity model, cell viability test (MTT). Type of series: cell-based, murine. The settings on record: compounds at 10, 1, 0.1 µM; 6-OHDA 100 µM.
The test system of series [2] is 6-OHDA-treated Neuro-2a cells. Put plainly: Mitochondrial membrane potential detection (TMRM) in 6-OHDA-treated cells. Format: cell-based, murine. Conditions: compound 10 µM; 6-OHDA 120 µM; TMRM. The method, then:
We determined the effect of polyphenolic compounds from M. amurensis on 6-OHDA-induced mitochondrial dysfunction in Neuro-2a cells (Figure 6a,b).
Figure 6 The effect of polyphenolic compounds isolated from M. amurensis heartwood on mitochondrial membrane potential in Neuro-2a cells treated with 6-OHDA (120 μM) (a,b). Polyphenolic compounds isolated from M. amurensis heartwood were used at concentrations 10, 1, 0.1 μM. The data are presented as means ± SEM of three independent replicates. (*) and (***) indicate, respectively, p < 0.05 and p < 0.001 versus 6-OHDA-treated cells.
The cells were incubated for 1 h in a 96-well plate (1 × 10^4 cells/well) with polyphenolic compounds (0.1, 1 and 10 µM). Then, 6-OHDA (120 µM) was added, and cell suspension was incubated for 1 h. Cells incubated without 6-OHDA and compounds and with 6-OHDA alone were used as positive and negative control, respectively. The tetramethylrhodamine methyl (TMRM) (Sigma-Aldrich, St. Louis, MO, USA) solution (500 nM) was added to each well and cells were incubated for 30 min at 37 °C. The intensity of fluorescence was measured using a PHERAstar FSplate reader (BMG Labtech, Ortenberg, Germany) at λex = 540 nm and λem = 590 nm. The data were processed by MARS Data Analysis v. 3.01R2 (BMG Labtech, Ortenberg, Germany).

The nature of series [3]: Cytotoxicity against Vero cells (MTT assay). Format: cell-based. Conditions: African green monkey. Here is the method:
We prepared the stock solutions of the tested compounds (10 mg/mL) in DMSO (Sigma, St. Louis, MO, USA). For the MTT assay and further studies of anti-HSV-1 activity, we diluted the stock solutions with DMEM so that the final concentration of DMSO was 0.5%.
We used MTT assay to determine the cytotoxic effect of the tested compounds against Vero cells. We performed the MTT assay as previously described.

The subject of series [4] is HSV-1. As to the kind of experiment: Pretreatment of cells with polyphenolic compounds, CPE inhibition assay. Format: cell-based, HSV-1 strain L2. The settings on record: for IC50: Human alphaherpesvirus 1, cells pretreated 2 h before infection, CPE assay; for Pretreatment of Cells SI: ratio of CC50 to IC50. The method, then: (§1) In order to study the mechanism of action of these compounds, two additional schemes of treatment of the virus and Vero cells with polyphenols were applied: the compounds were added before virus infection (pretreatment of cells) and after penetration of the virus into host cells (treatment of infected cells). The fourth method of exposure where the virus and polyphenols were added to cells simultaneously (simultaneous treatment) was previously described by us in [22]. The anti-HSV-1 activity of polyphenols was assessed using the cytopathic effect inhibition (CPE) assay.
The monolayer of cells was pretreated with different concentrations of the studied compounds for 2 h at 37 °C. After washing, the cells were infected with 100 TCID50/mL of the virus at 37 °C for 1 h. Then, unabsorbed virus was removed by washing with PBS (Sigma, Saint-Louis, MO, USA), and cells were incubated in the maintenance medium until CPE appeared.

The test system of series [5] is HSV-1. Put plainly: Treatment of virus-infected cells with polyphenols, CPE inhibition assay. Format: cell-based, HSV-1 strain L2. The settings on record: for IC50: Human alphaherpesvirus 1, compound added after virus adsorption and penetration, CPE assay; for Treatment of Infected Cells SI: ratio of CC50 to IC50. The method, then: as §1
The monolayer of cells was infected with the virus (100 TCID50/mL) at 37 °C for 1 h, and then the cells were washed with PBS (Sigma, Saint-Louis, MO, USA) and treated with different concentrations of the studied compounds and incubated until CPE appeared.

The test system of series [6] is HSV-1. On the set-up: method as in PMID 36985562. The settings on record: ref [22], cited from earlier work; for Simultaneous Treatment SI: ratio of CC50 to IC50; for Simultaneous Treatment IC50 / IC50: virus and compound added to cells simultaneously, CPE assay; for IC50: read-out: Simultaneous Treatment IC50.
Series [7] has as its system 6-OHDA-treated Neuro-2a cells. Put plainly: Apoptosis profile by flow cytometry (Annexin V & Dead Cell Kit). Type of series: cell-based, murine. The settings on record: Table 1; polyphenols 10 µM, 6-OHDA 100 µM, 24 h; mean. The method, then: We investigated the effect of polyphenolic compounds from M. amurensis on apoptosis profile in 6-OHDA-treated Neuro-2a cells by flow cytometry using fluorescent annexin V conjugate as a fluorescent dye. We observed significant changes in apoptosis profile in Neuro-2a cells after 6-OHDA-treatment. […] Polyphenols 3, 6 and 13 diminished the neurotoxic effect of 6-OHDA-treatment.
The cells were incubated for 1 h in a 6-well plate (5 × 10^4 cells/mL) with polyphenolic compounds (10 µM). Then, 6-OHDA (100 µM) was added, and cell suspension was incubated for 24 h. After incubation, the maintenance media was collected, and the cells were washed by cold PBS twice and incubated with trypsin-EDTA solution. The cell suspension was washed with cold PBS twice again, centrifugated and then used for apoptosis detection by Muse® Annexin V & Dead Cell Kit in accordance with the manufacturer’s instructions (Luminex, Austin, TX, USA). The fluorescence was measured with Muse® Cell Analyzer (Luminex, Austin, TX, USA) and the data were processed by Muse 1.5 Analysis software (Luminex, Austin, TX, USA).

Take `Oc1ccc(/C=C/c2cc(O)cc(O)c2)cc1` [Compound 1, resveratrol]: the “effect on viability of 6-OHDA-treated Neuro-2a cells (in words)” value in series [1] is “did not cause any increase in the viability”. Also, in series [2], the “increase of mitochondrial membrane potential” value (shortened to “increase”) is reported as 8–12%. In addition, the CC50 – broadly, the concentration at which the toxic effect on the cells reaches its halfway point – in series [3] is 123 µg/mL and 540 µM.
Consider `Oc1cc(O)cc(/C=C/c2ccc3c(c2)O[C@H](c2cc(O)cc(O)c2)[C@@H](c2ccc(O)c(O)c2)O3)c1` [Compound 9, maackin], for which the “effect on viability of 6-OHDA-treated Neuro-2a cells (in words)” value in series [1] is given as “did not show significant activity”. In addition, the “increase” value in series [2] is reported as 8–12%. In addition, in the series on HSV-1 [4], the IC50 – broadly, the concentration needed to halve the response being measured – is 70.3 µg/mL and 145 µM; the “Pretreatment of Cells SI” value was 3.8 and 3.8 ± 0.5. Also, in the series on HSV-1 [5], the half-maximal inhibitory concentration (IC50) was 24.5 µg/mL and 50.4 µM; the “Treatment of Infected Cells SI” value worked out at 11.0 ± 1.4. Also, in the series with HSV-1 [6], the “Simultaneous Treatment SI” value is given as 15.3 ± 1.9, the “Simultaneous Treatment IC50” value is given as 17.6 ± 2.3 µg/mL and the half-maximal inhibitory concentration (IC50) was 36.2 ± 4.7 µM.
With `O=C1C[C@@H](c2ccc(O)cc2)Oc2cc(O)ccc21` [Compound 6, liquiritigenin], the “increase” value in series [2] is 8–12%. Moreover, in series [7], the Dead was found to be 0.61 ± 0.13%, the Early apop. is 27.67 ± 1.09 %, the “Late apop./Dead” value was determined as 10.89 ± 0.86% and the Live came to 61.83 ± 0.09 %.
Regarding `Oc1ccc(/C=C/c2cc(O)cc3c2[C@H](c2cc(O)cc(O)c2)[C@@H](c2ccc(O)c(O)c2)O3)cc1` [Compound 13, scirpusin A], in series [7], the Dead is 0.73 ± 0.15%, the Early apop. amounted to 30.18 ± 1.13 %, the “Late apop./Dead” value is given as 12.2 ± 0.34% and the Live was determined as 56.90 ± 1.32 %. The molecule also displayed a cytotoxic concentration (CC50) in series [3] of 424 ± 50.1 µM. Besides, in the series on HSV-1 [4], the IC50 was 47.2 µg/mL and 100 µM; the “Pretreatment of Cells SI” value is 4.2 and 4.2 ± 0.6. In the series with HSV-1 [5], the half-inhibitory concentration (IC50) was 20.2 µg/mL and 43 µM; the “Treatment of Infected Cells SI” value came out at 9.8 ± 1.2. Moreover, in the series with HSV-1 [6], the “Simultaneous Treatment SI” value is on record as 14.4 ± 1.7, the “Simultaneous Treatment IC50” value is 13.8 ± 1.6 µg/mL and the 50% inhibitory concentration (IC50) was 29.4 ± 3.4 µM.
